The text below walks through data of patent publication US8877751B2, “Benzothiazolone derivatives” (Merck Patent GmbH, priority 2009, dated 2014).

The target in the assay is T1, Met kinase (Homo sapiens, UniProt P08581).
T1 construct: 6His (N); purchased Upstate 14-526; host or cells: Sf21 insect cells (S. frugiperda), baculovirus
Description: Met kinase inhibition (enzyme assay), flashplate method. The format is biochemical. An excerpt: According to the manufacturer's data (Met, active, Upstate, catalogue No. 14-526), Met kinase is expressed for the purposes of protein production in insect cells (Sf21; S. frugiperda) and subsequent affinity-chromatographic purification as “N-terminal 6His-tagged” recombinant human protein in a baculovirus expression vector.
Flashplate Method (Met Kinase)
The test plates used are 96-well Flashplate^R microtitre plates from Perkin Elmer (Cat. No. SMP200). The components of the kinase reaction described below are pipetted into the assay plate. The Met kinase and the substrate poly Ala-Glu-Lys-Tyr, (pAGLT, 6:2:5:1), are incubated for 3 hrs at room temperature with radioactively labelled ^33P-ATP in the presence and absence of test substances in a total volume of 100 μl. The reaction is terminated using 150 μl of a 60 mM EDTA solution. After incubation for a further 30 min at room temperature, the supernatants are filtered off with suction, and the wells are washed three times with 200 μl of 0.9% NaCl solution each time. The measurement of the bound radioactivity is carried out by means of a scintillation measuring instrument (Topcount NXT, Perkin-Elmer).
The full value used is the inhibitor-free kinase reaction. This should be approximately in the range 6000-9000 cpm. The pharmacological zero value used is staurosporin in a final concentration of 0.1 mM. The inhibitory values (IC50) are determined using the RS1_MTS program.
Kinase reaction conditions per well: • 30 μl of assay buffer • 10 μl of substance to be tested in assay buffer with 10% of DMSO • 10 μl of ATP (final concentration 1 μM cold, 0.35 μCi of ^33P-ATP) • 50 μl of Met kinase/substrate mixture in assay buffer; • (10 ng of enzyme/well, 50 ng of pAGLT/well)
Solutions Used: • Assay buffer: • 50 mM HEPES • 3 mM magnesium chloride • 3 μM sodium orthovanadate • 3 mM manganese(II) chloride • 1 mM dithiothreitol (DTT) • pH=7.5 (to be set using sodium hydroxide) • Stop solution: • 60 mM Titriplex III (EDTA) • ^33P-ATP: Perkin-Elmer; • Met kinase: Upstate, Cat. No. 14-526, Stock 1 μg/10 μl; spec. activity 954 U/mg; • Poly-Ala-Glu-Lys-Tyr, 6:2:5:1: Sigma Cat. No. P1152

By IC50 is commonly meant the concentration that gives 50% inhibition. A higher IC50 goes with weaker potency.

T1 sequence (P08581 25-1390): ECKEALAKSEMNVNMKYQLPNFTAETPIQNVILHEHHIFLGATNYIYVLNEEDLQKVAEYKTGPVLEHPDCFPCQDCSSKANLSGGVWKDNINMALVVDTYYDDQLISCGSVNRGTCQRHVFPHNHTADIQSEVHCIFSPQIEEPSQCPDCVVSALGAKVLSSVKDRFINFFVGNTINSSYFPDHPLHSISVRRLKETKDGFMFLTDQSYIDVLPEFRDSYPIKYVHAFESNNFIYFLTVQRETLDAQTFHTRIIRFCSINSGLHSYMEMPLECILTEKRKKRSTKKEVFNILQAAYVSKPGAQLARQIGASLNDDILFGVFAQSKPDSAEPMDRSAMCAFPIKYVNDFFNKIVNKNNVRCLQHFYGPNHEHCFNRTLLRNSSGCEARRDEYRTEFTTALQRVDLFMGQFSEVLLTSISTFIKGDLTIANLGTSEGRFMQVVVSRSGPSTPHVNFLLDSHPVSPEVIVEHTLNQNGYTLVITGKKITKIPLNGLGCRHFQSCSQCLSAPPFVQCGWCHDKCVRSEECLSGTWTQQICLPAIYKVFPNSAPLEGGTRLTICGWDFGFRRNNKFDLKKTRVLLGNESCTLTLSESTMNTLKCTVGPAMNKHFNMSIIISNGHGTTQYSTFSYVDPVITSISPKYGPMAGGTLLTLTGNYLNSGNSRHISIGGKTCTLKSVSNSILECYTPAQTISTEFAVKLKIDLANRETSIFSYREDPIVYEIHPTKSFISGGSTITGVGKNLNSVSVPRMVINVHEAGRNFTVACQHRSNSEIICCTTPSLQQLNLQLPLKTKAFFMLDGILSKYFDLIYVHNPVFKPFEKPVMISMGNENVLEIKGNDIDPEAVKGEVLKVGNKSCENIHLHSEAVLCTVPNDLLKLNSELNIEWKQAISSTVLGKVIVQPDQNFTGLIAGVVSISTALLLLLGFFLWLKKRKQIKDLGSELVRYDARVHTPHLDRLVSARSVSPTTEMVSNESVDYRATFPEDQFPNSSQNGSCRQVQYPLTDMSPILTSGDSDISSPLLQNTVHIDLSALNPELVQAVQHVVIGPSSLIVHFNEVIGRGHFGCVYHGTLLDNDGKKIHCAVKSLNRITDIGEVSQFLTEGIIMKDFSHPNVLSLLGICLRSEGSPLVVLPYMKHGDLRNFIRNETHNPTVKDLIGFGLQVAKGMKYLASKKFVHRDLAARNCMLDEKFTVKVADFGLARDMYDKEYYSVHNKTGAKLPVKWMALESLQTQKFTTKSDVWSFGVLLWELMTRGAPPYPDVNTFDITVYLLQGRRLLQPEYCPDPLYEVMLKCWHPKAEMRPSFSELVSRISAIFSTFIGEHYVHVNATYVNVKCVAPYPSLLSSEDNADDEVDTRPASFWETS

In the case of `Cn1cc(-c2ccc3sc(=O)n(Cc4cccc(-c5ncc(OCCN6CCOCC6)cn5)c4)c3c2)cn1` [Compound A10, 5-(1-methyl-1H-pyrazol-4-yl)-3-{3-[5-(2-morpholin-4-ylethoxy)pyrimidin-2-yl]benzyl}-3H-benzothiazol-2-one], the IC50 was 10 to 1000 nM. Under `O=c1sc2ccc(Br)cc2n1Cc1cccc(-c2ncc(OCCN3CCOCC3)cn2)c1` [Compound A4, 5-Bromo-3-{3-[5-(2-morpholin-4-ylethoxy)pyrimidin-2-yl]benzyl}-3H-benzothiazol-2-one] stands 10 to 1000 nM. Next, `O=c1sc2ccc(C(F)(F)F)cc2n1Cc1cccc(-c2ncc(OCC3CCNCC3)cn2)c1` [Compound A8, 3-{3-[5-(piperidin-4-ylmethoxy)pyrimidin-2-yl]benzyl}-5-trifluoromethyl-3H-benzothiazol-2-one]: 10 to 1000 nM; `CN1CCN(CCCOC(=O)Nc2cccc(Cn3c(=O)sc4ccc(Cl)cc43)c2)CC1` [Compound A13, 3-(4-methylpiperazin-1-yl)propyl [3-(5-chloro-2-oxobenzothiazol-3-ylmethyl)phenyl]carbamate]: 10 to 1000 nM. Next, `CC(C)(C)OC(=O)N1CCC(COc2cnc(-c3cccc(Cn4c(=O)sc5ccc(C(F)(F)F)cc54)c3)nc2)CC1` [Compound A7, 3-{3-[5-(1-tert-Butoxycarbonylpiperidin-4-ylmethoxy)pyrimidin-2-yl]-benzyl}-5-trifluoromethyl-3H-benzothiazol-2-one]: 10 to 1000 nM; `Cc1nc(-c2cccc(Cn3c(=O)sc4ccc(Cl)cc43)c2)no1` [Compound A12, 5-chloro-3-[3-(5-methyl-1,2,4-oxadiazol-3-yl)benzyl]-3H-benzothiazol-2-one]: 10 to 1000 nM. The compound `CN1CCN(c2cnc(-c3cccc(Cn4c(=O)sc5ccc(C(F)(F)F)cc54)c3)nc2)CC1` [Compound A11, 3-{3-[5-(4-methylpiperazin-1-yl)pyrimidin-2-yl]benzyl}-5-trifluoromethyl-3H-benzothiazol-2-one] returned an IC50 of 10 to 1000 nM. For the compound `O=c1sc2ccc(C(F)(F)F)cc2n1Cc1cccc(-c2ncc(-c3cnn(CCN4CCCC4)c3)cn2)c1` [Compound A9, 3-(3-{5-[1-(2-pyrrolidin-1-ylethyl)-1H-pyrazol-4-yl]pyrimidin-2-yl}benzyl)-5-trifluoromethyl-3H-benzothiazol-2-one], the IC50 was in the range of 10 to 1000 nM.

For `CN1CCC(COc2cnc(-c3cccc(Cn4c(=O)sc5ccc(C(F)(F)F)cc54)c3)nc2)CC1` [Compound A6, 3-{3-[5-(1-Methylpiperidin-4-ylmethoxy)pyrimidin-2-yl]benzyl}-5-trifluoromethyl-3H-benzothiazol-2-one], the IC50 was in the range of 10 to 1000 nM.

`CC(=O)c1ccc2c(c1)sc(=O)n2Cc1cccc(-c2ncc(OCCN3CCOCC3)cn2)c1` [Compound A3, 6-Acetyl-3-{3-[5-(2-morpholin-4-ylethoxy)pyrimidin-2-yl]benzyl}-3H-benzothiazol-2-one] returned a concentration for half-maximal inhibition (IC50) of 10 to 1000 nM. Next, `CCOC(=O)Nc1cccc(Cn2c(=O)sc3ccc(Cl)cc32)c1` [Compound A14, ethyl [3-(5-chloro-2-oxobenzothiazol-3-ylmethyl)phenyl]carbamate]: 10 to 1000 nM. Under `CN(C)CCCOc1cnc(-c2cccc(Cn3c(=O)sc4ccc(C(F)(F)F)cc43)c2)nc1` [Compound A5, 3-{3-[5-(3-dimethylaminopropoxy)pyrimidin-2-yl]benzyl}-5-trifluoromethyl-3H-benzothiazol-2-one] stands 10 to 1000 nM; under `CCC(=O)c1ccc2c(c1)sc(=O)n2Cc1cccc(-c2ncc(OCCN3CCOCC3)cn2)c1` [Compound A3a, 3-{3-[5-(2-Morpholin-4-ylethoxy)pyrimidin-2-yl]benzyl}-6-propionyl-3H-benzothiazol-2-one], 10 to 1000 nM; under `O=c1sc2ccc(C(F)(F)F)cc2n1Cc1cccc(-c2ncc(OCCN3CCOCC3)cn2)c1` [Compound A1, 3-{3-[5-(2-morpholin-4-ylethoxy)pyrimidin-2-yl]benzyl}-5-trifluoromethyl-3H-benzothiazol-2-one], 10 to 1000 nM. Next, `O=c1sc2ccc(Cl)cc2n1Cc1cccc(-c2ncc(OCCN3CCOCC3)cn2)c1` [Compound A2, 5-Chloro-3-{3-[5-(2-morpholin-4-ylethoxy)pyrimidin-2-yl]benzyl}-3H-benzothiazol-2-one]: 10 to 1000 nM.
